Experimental data as given in ChEMBL document CHEMBL5728348, “1 H-pyrazol-1-yl-thiazoles as inhibitors of lactate dehydrogenase and methods of use thereof” (2021).

Assay: Biochemical Assay: Test compounds were placed in a Greiner Bio-One (Monroe, N.C.) 1536-well black solid bottom assay plate. 200 millimolar (mM) Tris HCl, pH 7.4, 100 micromolar (μM) EDTA and 0.01% TWEEN-20, final concentration, was used as the assay buffer. The LDHA reagent was 2 nanomolar (nM) Human LDHA (Meridian Life Science, Inc., Memphis, Tenn.), final concentration, in assay buffer. The substrate reagent was 0.06 mM NADH and 0.2 mM sodium pyruvate, final concentration, in assay buffer. The resazurin/diaphorase coupling reagent was 0.037 mM resazurin and 0.133 milligrams per milliliter (mg/mL) diaphorase, final concentration, in assay buffer. The inhibition of LDHA activity was measured by fluorescence emission.

Row | Compound | IC50
1 | CC1CC=C(c2cc(-c3nn(-c4nc(C(=O)O)cs4)c(CC4CC4)c3Cc3ccc([SH+](N)[O-])c(F)c3)ccc2F)CC1 (stereo not drawn) | < 0.1 µM
2 | COC1CC=C(c2cc(-c3nn(-c4nc(C(=O)O)cs4)c(CC4CC4)c3Cc3ccc([SH+](N)[O-])c(F)c3)ccc2F)CC1 (stereo not drawn) | < 0.1 µM
3 | COc1ccc(-c2cc(-c3nn(-c4nc(C(=O)O)cs4)c(CC4CC4)c3Cc3ccc([SH+](N)[O-])c(F)c3)ccc2F)cc1C (stereo not drawn) | < 0.1 µM
4 | N[S+](=O)([O-])c1ccc(Cc2c(-c3ccc(F)c(-c4ncc[nH]4)c3)nn(-c3nc(C(=O)O)cs3)c2CC2CC2)cc1F | < 0.1 µM
5 | N[SH+]([O-])c1ccc(Cc2c(-c3cccc(-c4ccc(C5CC5)c(F)c4)c3)nn(-c3nc(C(=O)O)cs3)c2CC2CC2)cc1F (stereo not drawn) | in the range around 29 µM
6 | Cc1ccc(C#Cc2cccc(-c3nn(-c4nc(C(=O)O)cs4)c(CCC4CC4)c3Cc3ccc([SH+](N)[O-])c(F)c3)c2)s1 (stereo not drawn) | < 0.1 µM
7 | CC(C)(C)c1ccc(C#Cc2cc(-c3nn(-c4nc(C(=O)O)cs4)c(CC4CC4)c3Cc3ccc([SH+](N)[O-])c(F)c3)ccc2F)s1 (stereo not drawn) | in the range around 0.55 µM
8 | N[SH+]([O-])c1ccc(Cc2c(-c3cccc(-c4ccc(Cl)c(F)c4)c3)nn(-c3nc(C(=O)O)cs3)c2CC2CC2)cc1F (stereo not drawn) | < 0.1 µM
9 | Cc1ccc(C2CC2c2cccc(-c3nn(-c4nc(C(=O)O)cs4)c(CC4CC4)c3Cc3ccc([SH+](N)[O-])c(F)c3)c2)s1 (stereo not drawn) | < 0.1 µM
10 | CC1CCCC=C1c1cc(-c2nn(-c3nc(C(=O)O)cs3)c(CC3CC3)c2Cc2ccc([SH+](N)[O-])c(F)c2)ccc1F (stereo not drawn) | < 0.1 µM
11 | CC(C)c1ccc(-c2cccc(-c3nn(-c4nc(C(=O)O)cs4)c(CC4CC4)c3Cc3ccc([SH+](N)[O-])c(F)c3)c2)cc1 (stereo not drawn) | < 0.1 µM
12 | Cc1ncc(-c2cc(-c3nn(-c4nc(C(=O)O)cs4)c(CC4CC4)c3Cc3ccc([SH+](N)[O-])c(F)c3)ccc2F)[nH]1 (stereo not drawn) | < 0.1 µM
13 | N[SH+]([O-])c1ccc(Cc2c(-c3cccc(C#Cc4ccc(C5CC5)s4)c3)nn(-c3nc(C(=O)O)cs3)c2CC2CC2)cc1F (stereo not drawn) | in the range around 0.55 µM
14 | N[S+](=O)([O-])c1ccc(Cc2c(-c3ccc(F)c(C4=CCCCC4)c3)nn(-c3nc(C(=O)O)cs3)c2CC2CC2)cc1F | < 0.1 µM
15 | N[S+](=O)([O-])c1ccc(Cc2c(-c3ccc(F)c(C4=CCC5(CC4)CC5)c3)nn(-c3nc(C(=O)O)cs3)c2CC2CC2)cc1F | < 0.1 µM
16 | Cc1ccc(C#Cc2cccc(-c3nn(-c4nc(C(=O)O)cs4)c(CC4(C)CC4)c3Cc3ccc([SH+](N)[O-])c(F)c3)c2)s1 (stereo not drawn) | < 0.1 µM
17 | N[S+](=O)([O-])c1ccc(Cc2c(-c3ccc(F)c(-c4cccc(Cl)c4)c3)nn(-c3nc(C(=O)O)cs3)c2CC2CC2)cc1F | < 0.1 µM
18 | CC(C)N1CC2(CN(c3cc(-c4nn(-c5nc(C(=O)O)cs5)c(CC5CC5)c4Cc4ccc([SH+](N)[O-])c(F)c4)ccc3F)C2)C1 (stereo not drawn) | < 0.1 µM
19 | CC(=O)c1cc(-c2nn(-c3nc(C(=O)O)cs3)c(CC3CC3)c2Cc2ccc([SH+](N)[O-])c(F)c2)ccc1F (stereo not drawn) | < 0.1 µM
20 | N[S+](=O)([O-])c1ccc(Cc2c(-c3ccc(F)c(-c4ccc5c(c4)CCCC5)c3)nn(-c3nc(C(=O)O)cs3)c2CC2CC2)cc1F | < 0.1 µM
21 | N[S+](=O)([O-])c1ccc(Cc2c(-c3ccc(F)c(-c4cc(F)cc(F)c4)c3)nn(-c3nc(C(=O)O)cs3)c2CC2CC2)cc1F | < 0.1 µM

Row | Compound | IC50
22 | Cc1ccsc1C#Cc1cccc(-c2nn(-c3nc(C(=O)O)cs3)c(CC3CC3)c2Cc2ccc([SH+](N)[O-])c(F)c2)c1 (stereo not drawn) | < 0.1 µM
23 | N[SH+]([O-])c1ccc(Cc2c(-c3cccc(C#Cc4ccc(C(F)F)s4)c3)nn(-c3nc(C(=O)O)cs3)c2CC2CC2)cc1F (stereo not drawn) | < 0.1 µM
24 | Cc1ccc(-c2cc(-c3nn(-c4nc(C(=O)O)cs4)c(CC4CC4)c3Cc3ccc([SH+](N)[O-])c(F)c3)ccc2F)cc1F (stereo not drawn) | < 0.1 µM
25 | N[S+](=O)([O-])c1ccc(Cc2c(-c3ccc(F)c(-c4ccc(Cl)c(F)c4)c3)nn(-c3nc(C(=O)O)cs3)c2CC2CC2)cc1F | < 0.1 µM
26 | N[SH+]([O-])c1ccc(Cc2c(-c3ccc(F)c(NC(=O)c4ccccc4)c3)nn(-c3nc(C(=O)O)cs3)c2CC2CC2)cc1F (stereo not drawn) | < 0.1 µM
27 | N[S+](=O)([O-])c1ccc(Cc2c(-c3ccc(F)c(-c4ccc(C(F)(F)F)cc4)c3)nn(-c3nc(C(=O)O)cs3)c2CC2CC2)cc1F | < 0.1 µM
28 | COc1ccc(-c2cccc(-c3nn(-c4nc(C(=O)O)cs4)c(CC4CC4)c3Cc3ccc([SH+](N)[O-])c(F)c3)c2)cc1Cl (stereo not drawn) | in the range around 0.55 µM
29 | Cc1ccc(C#Cc2cccc(-c3nn(-c4nc(C(=O)O)cs4)c(C4CC45CC5)c3Cc3ccc([SH+](N)[O-])c(F)c3)c2)s1 (stereo not drawn) | < 0.1 µM
30 | Cc1cc(C)c(C#Cc2cccc(-c3nn(-c4nc(C(=O)O)cs4)c(CC4CC4)c3Cc3ccc([SH+](N)[O-])c(F)c3)c2)s1 (stereo not drawn) | < 0.1 µM
31 | Cc1ccc(C#Cc2cccc(-c3nn(-c4nc(C(=O)O)cs4)c(CC4CC4)c3Cc3ccc([SH+](N)[O-])c(F)c3)c2)o1 (stereo not drawn) | < 0.1 µM
32 | N[S+](=O)([O-])c1ccc(Cc2c(-c3ccc(F)c(-c4ccc5c(c4)CCC5)c3)nn(-c3nc(C(=O)O)cs3)c2CC2CC2)cc1F | < 0.1 µM
33 | Cc1ncc(C#Cc2cc(-c3nn(-c4nc(C(=O)O)cs4)c(CC4CC4)c3Cc3ccc([SH+](N)[O-])c(F)c3)ccc2F)s1 (stereo not drawn) | < 0.1 µM
34 | N[SH+]([O-])c1ccc(Cc2c(-c3cccc(-c4ccc(Cl)cc4)c3)nn(-c3nc(C(=O)O)cs3)c2CC2CC2)cc1F (stereo not drawn) | < 0.1 µM
35 | CC1(C)CC=C(c2cc(-c3nn(-c4nc(C(=O)O)cs4)c(CC4CC4)c3Cc3ccc([SH+](N)[O-])c(F)c3)ccc2F)CC1 (stereo not drawn) | < 0.1 µM
36 | N[SH+]([O-])c1ccc(Cc2c(-c3ccc(F)c(C4=CCCO4)c3)nn(-c3nc(C(=O)O)cs3)c2CC2CC2)cc1F (stereo not drawn) | < 0.1 µM
37 | Cc1cnc(C#Cc2cc(-c3nn(-c4nc(C(=O)O)cs4)c(CC4CC4)c3Cc3ccc([SH+](N)[O-])c(F)c3)ccc2F)s1 (stereo not drawn) | < 0.1 µM
38 | Cc1ccc(-c2cccc(-c3nn(-c4nc(C(=O)O)cs4)c(CC4CC4)c3Cc3ccc([SH+](N)[O-])c(F)c3)c2)cc1F (stereo not drawn) | < 0.1 µM
39 | COc1ccc(-c2cccc(-c3nn(-c4nc(C(=O)O)cs4)c(CC4CC4)c3Cc3ccc([SH+](N)[O-])c(F)c3)c2)cc1C (stereo not drawn) | < 0.1 µM
40 | COc1cc(OC)cc(-c2cc(-c3nn(-c4nc(C(=O)O)cs4)c(CC4CC4)c3Cc3ccc([SH+](N)[O-])c(F)c3)ccc2F)c1 (stereo not drawn) | < 0.1 µM
41 | Cc1cc(-c2cccc(-c3nn(-c4nc(C(=O)O)cs4)c(CC4CC4)c3Cc3ccc([SH+](N)[O-])c(F)c3)c2)ccc1Cl (stereo not drawn) | in the range around 29 µM
42 | N[S+](=O)([O-])c1ccc(Cc2c(-c3cccc(-c4ccc5c(c4)CCCC5)c3)nn(-c3nc(C(=O)O)cs3)c2CC2CC2)cc1F | in the range around 0.55 µM

Row | Compound | IC50
43 | Cc1ccc(C#Cc2cccc(-c3nn(-c4nc(C(N)=O)cs4)c(CC4CC4)c3Cc3ccc([SH+](N)[O-])c(F)c3)c2)s1 (stereo not drawn) | in the range around 29 µM
44 | N[S+](=O)([O-])c1ccc(Cc2c(-c3ccc(F)c(-c4ccc(F)c(F)c4)c3)nn(-c3nc(C(=O)O)cs3)c2CC2CC2)cc1F | < 0.1 µM
45 | N[S+](=O)([O-])c1ccc(Cc2c(-c3ccc(F)c(C4=Cc5ccccc5C4)c3)nn(-c3nc(C(=O)O)cs3)c2CC2CC2)cc1F | < 0.1 µM
46 | N[S+](=O)([O-])c1ccc(Cc2c(-c3ccc(F)c(-c4nc5ccccc5[nH]4)c3)nn(-c3nc(C(=O)O)cs3)c2CC2CC2)cc1F | < 0.1 µM
47 | N[S+](=O)([O-])c1ccc(Cc2c(-c3ccc(F)c(C4=CCC(F)(F)CC4)c3)nn(-c3nc(C(=O)O)cs3)c2CC2CC2)cc1F | < 0.1 µM
48 | CC(C)c1ccc(C#Cc2cccc(-c3nn(-c4nc(C(=O)O)cs4)c(CC4CC4)c3Cc3ccc([SH+](N)[O-])c(F)c3)c2)s1 (stereo not drawn) | in the range around 0.55 µM
49 | N[S+](=O)([O-])c1ccc(Cc2c(-c3ccc(F)c(-c4ccc(Cl)cc4)c3)nn(-c3nc(C(=O)O)cs3)c2CC2CC2)cc1F | < 0.1 µM
50 | Cc1ccc(/C=C/c2cccc(-c3nn(-c4nc(C(=O)O)cs4)c(CC4CC4)c3Cc3ccc([SH+](N)[O-])c(F)c3)c2)s1 (stereo not drawn) | < 0.1 µM
51 | N[S+](=O)([O-])c1ccc(Cc2c(-c3ccc(F)c(C4=CCC(C(F)(F)F)CC4)c3)nn(-c3nc(C(=O)O)cs3)c2CC2CC2)cc1F (stereo not drawn) | < 0.1 µM
52 | CC(C)(C)c1ccc(-c2cccc(-c3nn(-c4nc(C(=O)O)cs4)c(CC4CC4)c3Cc3ccc([SH+](N)[O-])c(F)c3)c2)cc1 (stereo not drawn) | in the range around 0.55 µM
53 | N[SH+]([O-])c1ccc(Cc2c(-c3cccc(C#Cc4ccc(C(F)(F)F)s4)c3)nn(-c3nc(C(=O)O)cs3)c2CC2CC2)cc1F (stereo not drawn) | in the range around 0.55 µM
54 | N[SH+]([O-])c1ccc(Cc2c(-c3cccc(-c4cccc(Cl)c4)c3)nn(-c3nc(C(=O)O)cs3)c2CC2CC2)cc1F (stereo not drawn) | < 0.1 µM
55 | Cc1ccc(C#Cc2cccc(-c3nn(-c4nc(B(O)O)cs4)c(CC4CC4)c3Cc3ccc([SH+](N)[O-])c(F)c3)c2)s1 (stereo not drawn) | in the range around 29 µM
56 | Cc1ccc([C@H]2C[C@@H](c3cccc(-c4nn(-c5nc(C(=O)O)cs5)c(CC5CC5)c4Cc4ccc([SH+](N)[O-])c(F)c4)c3)C2)s1 (stereo partly drawn) | < 0.1 µM
57 | N[SH+]([O-])c1ccc(Cc2c(-c3cccc(C#Cc4ccc(Cl)s4)c3)nn(-c3nc(C(=O)O)cs3)c2CC2CC2)cc1F (stereo not drawn) | < 0.1 µM
58 | Cc1cnc(C#Cc2cccc(-c3nn(-c4nc(C(=O)O)cs4)c(CC4CC4)c3Cc3ccc([SH+](N)[O-])c(F)c3)c2)o1 (stereo not drawn) | < 0.1 µM
59 | Cc1cc(C)cc(-c2cc(-c3nn(-c4nc(C(=O)O)cs4)c(CC4CC4)c3Cc3ccc([SH+](N)[O-])c(F)c3)ccc2F)c1 (stereo not drawn) | in the range around 0.55 µM
60 | Cc1ccc(C#Cc2cc(-c3nn(-c4nc(C(=O)O)cs4)c(CCC4CC4)c3Cc3ccc([SH+](N)[O-])c(F)c3)ccc2F)s1 (stereo not drawn) | < 0.1 µM
61 | Cc1ccc(C#Cc2cccc(-c3nn(-c4nc(C(=O)O)cs4)c(CC4CC4)c3Cc3ccc([SH+](N)[O-])c(F)c3)c2)s1 (stereo not drawn) | < 0.1 µM
62 | N[S+](=O)([O-])c1ccc(Cc2c(-c3ccc(F)c(-c4cc(Cl)cc(Cl)c4)c3)nn(-c3nc(C(=O)O)cs3)c2CC2CC2)cc1F | in the range around 0.55 µM
63 | CC(C)c1cccc(-c2cccc(-c3nn(-c4nc(C(=O)O)cs4)c(CC4CC4)c3Cc3ccc([SH+](N)[O-])c(F)c3)c2)c1 (stereo not drawn) | < 0.1 µM
